Measurements published in article PMC4882559, “Novel Azetidine-Containing TZT-1027 Analogues as Antitumor Agents” (Marine Drugs, 2016).
Values after ≈ are worked out from the molar mass of the structure shown. “Also recorded” adds a separate entry of the source.

Experiments:
[1] = system: HCT116 human colon cancer cells; test: Cancer cell proliferation inhibition (MTT assay), HCT116; type: cell-based; details: 72 h incubation, mean ± SD of at least three independent experiments
Experimental: The following cell lines were used for the screening stage, obtained from American Type Culture Collection (ATCC, Manassas, VA, USA); HCT116 human colon cancer cells and A549 human lung carcinoma cell lines were cultured in RPMI 1640 medium supplemented with 10% FBS. Cell cultures were maintained in a humidified atmosphere of 5% CO2 at 37 °C. Cells were seeded at 2000 cells per well in 96-well plates in a volume of 200 μL per well. The test compounds were dissolved in DMSO and diluted with culture medium to different concentrations. After seeding for 24 h, the medium was removed, and […] of the test compound solution was added in duplicates and incubation continued for 72 h at 37 °C in a humidified atmosphere containing 5% CO2. Control cells were treated with vehicle alone. During the last 4 h of incubation, the cells were exposed to tetrazolium dye (MTT) solution (5 mg/mL, […] per well). The generated formazan crystals were dissolved in […] of dimethyl sulfoxide (DMSO), and the absorbance was read spectrophotometrically at 570 nm using an enzyme-linked immunosorbent assay plate reader. The data was calculated using Graph Pad Prism version 5.0 (GraphPad Softwrae, La Jolla, CA, USA). The IC50s were fitted using a non-linear regression model with a sigmoidal dose response.

Human A549 xenograft = test: In vivo efficacy study, A549 xenograft model; parameters: species or system BALB/c athymic mice; details: for Tumor volume: n = 6, mean (SD on next line); for Relative tumor volume: RTV = Vt/V0, n = 6, mean ± SD
Excerpt: Pathogen-free, 4–6 week-old, female BALB/c athymic mice (Shanghai SCXK Laboratory Animal Technology Co. Ltd., Shanghai, China) were housed under sterile conditions. Human A549 xenograft was established in the right flanks of athymic mice according to the protocol of the National Cancer Institute. When the tumor reached a volume of 100 mm^3, the mice were randomly assigned into control (n = 6 per group) and treatment groups (n = 6 per group). Control group were given lactate buffer, and treatment groups were iv administered with tested compounds. The size of tumor was measured individually on the indicated days. Tumor volume (V) was calculated as V = (length × width^2)/2. The individual relative tumor volume (RTV) was calculated as follows: RTV = Vt/V0, where Vt represented the last tumor size measurement and V0 represented the pre-dosing tumor size measurement. The animal experimental protocols were approved by the Animal Ethics Committee of School of Pharmacy, Fudan University and the mice were treated in accordance with international animal ethics guidelines.

Solubility of 1a = type: physicochemical
[2] = Liver microsomes metabolic stability, rat
[3] = Liver microsomes metabolic stability, human
[4] = Liver microsomes metabolic stability, mouse

Compound CC[C@H](C)[C@@H]([C@@H](CC(=O)N1CCC[C@H]1[C@H](OC)[C@@H](C)C(=O)N1CC(c2ccccc2)C1)OC)N(C)C(=O)[C@@H](NC(=O)C(C(C)C)N(C)C)C(C)C (stereo in doubt) [1a, (S)-2-((R)-2-(Dimethylamino)-3-methylbutanamido)-N-((3R,4S,5S)-3-methoxy-1-((S)-2-((1R,2R)-1-methoxy-2-methyl-3-oxo-3-(3-phenylazetidin-1-yl)propyl)pyrrolidin-1-yl)-5-methyl-1-oxoheptan-4-yl)-N,3-dimethylbutanamide] has an IC50 [1] of 2.1 ± 0.4 nM, a Tumor volume (Human A549 xenograft; 1 mg/kg iv once a day, day 1) of 149.56 mm3 and a Relative tumor volume (Human A549 xenograft; 1 mg/kg iv once a day, day 4) of 1.27 ± 0.37. The Tumor volume (Human A549 xenograft; 1 mg/kg iv once a day, day 4) was 185.88 mm3, the Relative tumor volume (Human A549 xenograft; 1 mg/kg iv once a day, day 7) was 1.65 ± 0.57 and the Tumor volume (Human A549 xenograft; 1 mg/kg iv once a day, day 7) was 248.97 mm3. It also gave a Relative tumor volume (Human A549 xenograft; 1 mg/kg iv once a day, day 10) of 2.29 ± 0.76, a Tumor volume (Human A549 xenograft; 1 mg/kg iv once a day, day 10) of 341.75 mm3 and a Relative tumor volume (Human A549 xenograft; 1 mg/kg iv once a day, day 13) of 2.69 ± 0.9. The Tumor volume (Human A549 xenograft; 1 mg/kg iv once a day, day 13) was 395.43 mm3, the Relative tumor volume (Human A549 xenograft; 1 mg/kg iv once a day, day 16) was 3.62 ± 1.05 and the Tumor volume (Human A549 xenograft; 1 mg/kg iv once a day, day 16) was 530.82 mm3. The Relative tumor volume (Human A549 xenograft; 1 mg/kg iv once a day, day 19) was 3.86 ± 1.34, the Tumor volume (Human A549 xenograft; 1 mg/kg iv once a day, day 19) was 563.52 mm3 and the Relative tumor volume (Human A549 xenograft; 1 mg/kg iv once a day, day 22) was 4.69 ± 1.74. The Tumor volume (Human A549 xenograft; 1 mg/kg iv once a day, day 22) was 662.64 mm3, the Relative tumor volume (Human A549 xenograft; 2 mg/kg iv once a day, day 4) was 1.3 ± 0.22 and the Tumor volume (Human A549 xenograft; 2 mg/kg iv once a day, day 4) was 214.97 mm3. It also gave a Relative tumor volume (Human A549 xenograft; 2 mg/kg iv once a day, day 7) of 1.8 ± 0.31, a Tumor volume (Human A549 xenograft; 2 mg/kg iv once a day, day 7) of 287.02 mm3 and a Relative tumor volume (Human A549 xenograft; 2 mg/kg iv once a day, day 10) of 2.44 ± 0.46. It also gave a Tumor volume (Human A549 xenograft; 2 mg/kg iv once a day, day 10) of 381.31 mm3, a Relative tumor volume (Human A549 xenograft; 2 mg/kg iv once a day, day 13) of 3.22 ± 0.6 and a Tumor volume (Human A549 xenograft; 2 mg/kg iv once a day, day 13) of 508.66 mm3. For the same compound, the Relative tumor volume (Human A549 xenograft; 2 mg/kg iv once a day, day 16) was 4.34 ± 0.97, the Tumor volume (Human A549 xenograft; 2 mg/kg iv once a day, day 16) was 682.39 mm3 and the Relative tumor volume (Human A549 xenograft; 2 mg/kg iv once a day, day 19) was 5.15 ± 1.13. It also gave a Tumor volume (Human A549 xenograft; 2 mg/kg iv once a day, day 19) of 813.25 mm3, a Relative tumor volume (Human A549 xenograft; 2 mg/kg iv once a day, day 22) of 5.5 ± 2.15 and a Tumor volume (Human A549 xenograft; 2 mg/kg iv once a day, day 22) of 862.75 mm3. For the same compound, the Tumor volume (Human A549 xenograft; 5 mg/kg iv once a day, day 1) was 205.7 mm3, the Relative tumor volume (Human A549 xenograft; 5 mg/kg iv once a day, day 4) was 1.37 ± 0.34 and the Tumor volume (Human A549 xenograft; 5 mg/kg iv once a day, day 4) was 266.39 mm3. The Relative tumor volume (Human A549 xenograft; 5 mg/kg iv once a day, day 7) was 1.53 ± 0.41, the Tumor volume (Human A549 xenograft; 5 mg/kg iv once a day, day 7) was 287.02 mm3 and the Relative tumor volume (Human A549 xenograft; 5 mg/kg iv once a day, day 10) was 2.05 ± 0.62. The Tumor volume (Human A549 xenograft; 5 mg/kg iv once a day, day 10) was 380.17 mm3, the Relative tumor volume (Human A549 xenograft; 5 mg/kg iv once a day, day 13) was 2.7 ± 0.88 and the Tumor volume (Human A549 xenograft; 5 mg/kg iv once a day, day 13) was 487.47 mm3. The Relative tumor volume (Human A549 xenograft; 5 mg/kg iv once a day, day 16) was 2.97 ± 0.91, the Tumor volume (Human A549 xenograft; 5 mg/kg iv once a day, day 16) was 554.26 mm3 and the Relative tumor volume (Human A549 xenograft; 5 mg/kg iv once a day, day 19) was 3.51 ± 0.82. The Tumor volume (Human A549 xenograft; 5 mg/kg iv once a day, day 19) was 668.46 mm3, the Relative tumor volume (Human A549 xenograft; 5 mg/kg iv once a day, day 22) was 4.19 ± 1.41 and the Tumor volume (Human A549 xenograft; 5 mg/kg iv once a day, day 22) was 789.59 mm3. The “toxicity and weight loss” value (Human A549 xenograft; 1, 2 and 5 mg/kg/day iv for 22 days, A549 xenograft mice) was “no overt toxicity and weight-loss; also recorded: did not show any severe toxicity”, the solubility (Solubility of 1a; distilled water, pH 7.4, water) was 346 µg/mL (≈ 485 µM) and the “solubility (in words)” value (Solubility of 1a; limited exploration of higher in vivo dosage) was “poor solubility”. For the same compound, the Clint ([2]; Rat, apparent intrinsic clearance, 1 μM) was 262.12 mL/min/kg, the half-life at 1 μM ([2]; rat, microsomes) was 9.48 min and the Clint ([3]; Human, apparent intrinsic clearance, 1 μM) was 92.93 mL/min/kg. The half-life at 1 μM ([3]; human, microsomes) was 18.7 min, the T1/2 ([4]; Mouse liver microsomes, metabolic stability, 1 μM) was “less than 2 min” and the Clint ([4]; Mouse, apparent intrinsic clearance, 1 μM) was 2981.16 mL/min/kg. For the same compound, the half-life at 1 μM ([4]; mouse, microsomes) was 1.83 min.
